Data from patent US11465982B2, “Pyridazines” (Boehringer Ingelheim International GmbH, priority 2019, dated 2022).
Blank lines part the entries; values can stand above or below the molecule they belong to.

Columns and labels:
Human ATX = Human ATX (Homo sapiens (Human), UniProt Q13822); experiment: Assay A: Biochemical ATX Assay; details: 5 nM recombinant ATX, 18:1 LPC substrate, 2-h incubation at room temperature, formation of 18:1 LPA
Procedure: 5 nM recombinant ATX (Cayman Chemicals) was supplemented to 50 mM Tris buffer (pH 8.0) containing 3 mM KCl, 1 mM CaCl2, 1 mM MgCl2 0.14 mM NaCl, and 0.1% bovine serum albumin. Test compounds were dissolved in DMSO and tested in the range of 0.1 nM to 10 μM. The enzymatic reaction (22.5 μL) was started by addition of 2.5 μL 10 μM 18:1 LPC (Avanti Lipids, Alabaster, Ala., USA). After 2-h incubation at room temperature, the reaction was stopped by addition of 20 μL water containing 500 nM 20:4 LPA as internal standard and 100 μL 1-butanol for extracting LPA. Subsequently, the plates were centrifuged at 4000 rpm, 4° C., for 2 min. The resultant upper butanol phase was directly used for injection at a RapidFire system (Agilent).
The RapidFire autosampler was coupled to a binary pump (Agilent 1290) and a Triple Quad 6500 (ABSciex, Toronto, Canada). This system was equipped with a 10-μL loop, 5-μL Waters Atlantis HILIC cartridge (Waters, Elstree, UK), 90% acetonitrile containing 10 mM ammonium acetate as eluent A and 40% acetonitrile containing 10 mM ammoniumacetate as eluent B. For details see (Bretschneider et al., SLAS Discovery, 2017). 1 The MS was operated in negative mode with a source temperature of 550° C., curtain gas=35, gas 1=65, and gas 2=80. The following transitions and MS parameters (DP: declustering potential and CE: collision energy) for the respective LPAs were determined: 18:1 LPA at 435.2/152.8, DP=−40, CE=−28 and 20:4 LPA at 457.2/152.8, DP=−100, CE=−27).
The formation of 18:1 LPA was monitored and evaluated as ratio to 20:4 LPA.

ATX in human whole blood = ATX in human whole blood (Homo sapiens (Human), UniProt Q13822); experiment: Assay B: Whole-Blood ATX Assay; type: biochemical; details: 1 h at 37° C., formation of 18:2 LPA
Procedure: 45 μL human whole-blood was supplemented with 5 μL of the test compound, dissolved in phosphate-buffered saline (concentration range 0.12 nM-100 μM). This mixture was incubated for 1 h at 37° C. and stopped by addition of 100 μL 40 mM disodium hydrogen phosphate buffer containing 30 mM citric acid (pH 4) and 1 μM 17:0 LPA (internal standard). LPA was extracted by addition of 500 μL 1-butanol, followed by 10-min centrifugation at 4000 rpm, 4° C. Prom the resultant organic supernatant, a 200 μL aliquot was transferred into a 96-deep-well plate and transferred to the RapidPire-based MS/MS measurement.
The RapidPire autosampler was coupled to a binary pump (Agilent 1290) and a Triple Quad 6500 (ABSciex, Toronto, Canada). This system was equipped with a 10-μL loop, 5-μL Waters Atlantis HILIC cartridge (Waters, Elstree, UK), 90% acetonitrile containing 10 mM ammonium acetate as eluent A and 40% acetonitrile containing 10 mM ammoniumacetate as eluent B. For details see (Bretschneider et al., SLAS Discovery, 2017, 22, 425-432). The MS was operated in negative mode with a source temperature of 550° C., curtain gas=35, gas 1=65, and gas 2=80. The following transitions and MS parameters (DP: declustering potential and CE: collision energy) for the respective LPAs were determined: 18:2 LPA at 433.2/152.8, DP=−150, CE=−27 and 17:0 LPA at 423.5/152.8, DP=−100.
The formation of 18:2 LPA was monitored and evaluated as ratio to 17:0 LPA.

plasma LPA = experiment: Assay C: In Vivo (plasma LPA reduction after oral application to rats); design: species or system rat; details: 5 mg/kg, plasma 8 hours post application, vs baseline, sum of LPA 16:0, 18:0, 18:1, 18:2, 20:4
Procedure: The test substance was solubilized in 0.5% natrosol supplemented with 0.015% Tween 80 for oral application to rats at a dose of 5 mg/kg. Blood samples were collected before compound administration and 8 hours post application on ice using EDTA as coagulation agent. Subsequently, plasma was prepared by centrifugation and stored until analysis at −20° C.
LPAs from plasma samples were extracted by using the procedure described by Scherer et al. (Clinical chemistry 2009, 55, 1218-22). 35 μL of heparinized plasma was mixed with 200 μL 40 mM disodium hydrogen phosphate buffer containing 30 mM citric acid (pH 4) and 1 μM 17:0 LPA (internal standard). Subsequently, 500 μL butanol was added and shaken vigorously for 10 min. Samples were centrifuged afterwards at 4000 rpm, 4° C., for 10 min. 500 μL of the organic upper phase was transferred to a fresh 96-deep-well plate and evaporated with a gentle nitrogen flow of 15 psi for 45 min. The resultant residual was dissolved in 100 μL ethanol prior to LC-MS analysis.
LC-MS Method for the Analytic of In Vivo Samples
A Triple Quad 6500 (ABSciex, Toronto, Canada) was equipped with an Agilent 1290 LC system (Agilent, Santa Clara, Calif.) a CTC autosampler and an Atlantis 50×2.1-mm, 3-μm HILIC LC column (Waters, Elstree, UK). Eluent A contained 0.2% formic acid and 50 mM ammonium formate in water, whereas eluent B consisted of 0.2% formic acid in acetonitrile. […] At 1.8 min, solvent B was set back to 95% and stayed constant for 0.7 min for re-equilibration of the column. The following LPA species were monitored (DP: declustering potential and CE: collision energy): 16:0 LPA at 409.2/152.8, DP=−150, CE=−28; 18:0 LPA at 437.3/152.8, DP=−60, CE=−28; 18:1 LPA at 435.2/152.8, DP=−40, CE=−28; 18:2 LPA at 433.2/152.8, DP=−150, CE=−28; 20:4 LPA at 457.2/152.8, DP=−100, CE=−29 and 17:0 LPA at 423.5/152.8, DP=−100, CE=−36. LPA depletion in percent was calculated based on the baseline LPA levels before test compound application. The sum of LPA refers to the species 16:0; 18:0; 18:1; 18:2 and 20:4

Compound: CC(=O)N1CCC2(CC1)CN(c1ccc(CNC(=O)C3(c4ccc(OCc5ccc(C(F)(F)F)nc5)nn4)CC3)cc1)C2 [Example 1.1, N-(4-(7-acetyl-2,7-diazaspiro[3.5]nonan-2-yl)benzyl)-1-(6-((6-(trifluoromethyl)pyridin-3-yl)methoxy)pyridazin-3-yl)cyclopropane-1-carboxamide]
IC50 (Human ATX): 4 nM
IC50 (ATX in human whole blood): 3.1 nM
LPA reduction at 8 h (plasma LPA): 93.7%

Compound: CN1CC2(CC1=O)CN(c1ccc(CNC(=O)C3(c4ccc(OCc5ccc(C(F)F)nc5)nn4)CC3)cc1)C2 [Example 1.2]
IC50 (Human ATX): 3.5 nM
IC50 (ATX in human whole blood): 2.4 nM
LPA reduction at 8 h (plasma LPA): 90.6%

Compound: CC(=O)N1CCC2(CC1)CN(c1ccc(CNC(=O)C3(c4ccc(OCc5ccc(C(F)F)nc5)nn4)CC3)cc1)C2 [Example 1.3]
IC50 (Human ATX): 3.7 nM
IC50 (ATX in human whole blood): 2.8 nM
LPA reduction at 8 h (plasma LPA): 95.0%

Compound: CC(=O)N1CC2(C1)CN(c1ccc(CNC(=O)C3(c4ccc(OCc5ccc(C(F)F)nc5)nn4)CC3)cc1)C2 [Example 1.4]
IC50 (Human ATX): 4 nM
IC50 (ATX in human whole blood): 3.1 nM
LPA reduction at 8 h (plasma LPA): 98.2%

Compound: CC(=O)N1CCN(c2ccc(CNC(=O)C3(c4ccc(OCc5ccc(C(F)(F)F)nc5)nn4)CC3)c(F)c2)CC1 [Example 1.5]
IC50 (Human ATX): 3.8 nM
IC50 (ATX in human whole blood): 4.2 nM

Compound: CC(=O)N1CCN(c2ccc(CNC(=O)C3(c4ccc(OCc5ccc(C(F)(F)F)nc5)nn4)CC3)cc2F)CC1 [Example 1.6]
IC50 (Human ATX): 2.4 nM
IC50 (ATX in human whole blood): 4.7 nM

Compound: CN1CC2(CC1=O)CN(c1ccc(CNC(=O)C3(c4ccc(OCc5ccc(C(F)(F)F)nc5)nn4)CC3)cc1)C2 [Example 1.7]
IC50 (Human ATX): 8.9 nM
IC50 (ATX in human whole blood): 5.7 nM

Compound: CC(=O)N1CC2(CCN(c3ccc(CNC(=O)C4(c5ccc(OCc6ccc(C(F)F)nc6)nn5)CC4)cc3)C2)C1 [Example 1.8]
IC50 (Human ATX): 4.1 nM
IC50 (ATX in human whole blood): 7.3 nM
LPA reduction at 8 h (plasma LPA): 78.2%

Compound: CN1C(=O)NCC12CCN(c1ccc(CNC(=O)C3(c4ccc(OCc5ccc(C(F)F)nc5)nn4)CC3)cc1)CC2 [Example 1.9]
IC50 (Human ATX): 4.5 nM
IC50 (ATX in human whole blood): 9.4 nM

Compound: O=C1CCCN1C1CCN(c2ccc(CNC(=O)C3(c4ccc(OCc5ccc(C(F)(F)F)nc5)nn4)CC3)cc2)CC1 [Example 1.10]
IC50 (Human ATX): 2.4 nM
IC50 (ATX in human whole blood): 7 nM

Compound: CC(=O)N1CCC12CN(c1ccc(CNC(=O)C3(c4ccc(OCc5ccc(C(F)(F)F)nc5)nn4)CC3)cc1)C2 [Example 1.11]
IC50 (Human ATX): 2.6 nM
IC50 (ATX in human whole blood): 10 nM

Compound: CC(=O)N1CCN(c2ccc(CNC(=O)C3(c4ccc(OCc5ccc(C(F)(F)F)nc5)nn4)CC3)cc2)CC1 [Example 1.12]
IC50 (Human ATX): 4.3 nM
IC50 (ATX in human whole blood): 10.2 nM
LPA reduction at 8 h (plasma LPA): 83.9%

Compound: CN1C(=O)NCC12CCN(c1ccc(CNC(=O)C3(c4ccc(OCc5ccc(C(F)(F)F)nc5)nn4)CC3)cc1)CC2 [Example 1.13]
IC50 (Human ATX): 2.8 nM
IC50 (ATX in human whole blood): 10.5 nM

Compound: CC(=O)N1CCC2(C1)CN(c1ccc(CNC(=O)C3(c4ccc(OCc5ccc(C(F)(F)F)nc5)nn4)CC3)cc1)C2 [Example 1.14]
IC50 (Human ATX): 4.9 nM
IC50 (ATX in human whole blood): 11.1 nM

Compound: CC(=O)N1CCN(c2ccc(CNC(=O)C3(c4ccc(OCc5ccc(C(F)(F)F)nc5)nn4)CC3)cc2C(F)(F)F)CC1 [Example 1.15]
IC50 (Human ATX): 2 nM
IC50 (ATX in human whole blood): 11.8 nM

Compound: CC(=O)N1CCN(c2ccc(CNC(=O)C3(c4ccc(OCc5ccc(C(F)F)nc5)nn4)CC3)cc2)CC1 [Example 1.16]
IC50 (Human ATX): 3.4 nM
IC50 (ATX in human whole blood): 5.4 nM
LPA reduction at 8 h (plasma LPA): 95.5%

Compound: CCc1nc2c(C)cc(N3CCN(CC(=O)N4CC(O)C4)CC3)cn2c1N(C)c1nc(-c2ccc(F)cc2)c(C#N)s1 [Example 2 in WO2014/139882, reference compound]
LPA reduction at 8 h (plasma LPA): 58.1%

Now from value to molecule, other results behind:

IC50 (Human ATX): 2.2 nM
IC50 (ATX in human whole blood): 6.5 nM
Compound: CC(=O)N1CC2(C1)CN(c1ccc(CNC(=O)C3(c4ccc(OCc5ccc(C(F)(F)F)nc5)nn4)CC3)cc1)C2 [Example 1.17]
LPA reduction at 8 h (plasma LPA): 96.9%

IC50 (Human ATX): 3.2 nM
IC50 (ATX in human whole blood): 10.8 nM
Compound: CC(=O)N1CC2CC1CN2c1ccc(CNC(=O)C2(c3ccc(OCc4ccc(C(F)(F)F)nc4)nn3)CC2)cc1 (centres unmarked) [Example 1.18]

IC50 (Human ATX): 2.2 nM
IC50 (ATX in human whole blood): 8.3 nM
Compound: CC(=O)N1CCN(c2ccc(CNC(=O)C3(c4ccc(OCc5ccc(C(F)(F)F)nc5)nn4)CC3)cc2)CC1(C)C [Example 1.19]

IC50 (Human ATX): 4 nM
IC50 (ATX in human whole blood): 6.7 nM
Compound: CC(=O)N1CCN(c2ccc(CNC(=O)C3(c4ccc(OCc5ccc(C(F)(F)F)nc5)nn4)CC3)cc2)C(C)(C)C1 [Example 1.20]

IC50 (Human ATX): 4.4 nM
IC50 (ATX in human whole blood): 2.9 nM
Compound: CC(=O)N1CC2(C1)CN(c1ccc(CNC(=O)C3(c4ccc(OCc5ccc(C(F)(F)F)nc5)nn4)CC3)cc1F)C2 [Example 1.21]
LPA reduction at 8 h (plasma LPA): 93.8%

IC50 (Human ATX): 2.5 nM
IC50 (ATX in human whole blood): 2.5 nM
Compound: CC(=O)N1CCN(c2ccc(CNC(=O)C3(c4ccc(OCc5ccc(C(F)F)nc5)nn4)CC3)c(C(F)(F)F)c2)CC1 [Example 1.22]

IC50 (Human ATX): 3.6 nM
IC50 (ATX in human whole blood): 4.9 nM
Compound: CC(=O)N1CCN(c2ccc(CNC(=O)C3(c4ccc(OCc5ccc(C(F)(F)F)nc5)nn4)CC3)c(C(F)(F)F)c2)CC1 [Example 1.23]

IC50 (Human ATX): 3.8 nM
IC50 (ATX in human whole blood): 4.6 nM
Compound: CC(=O)N1C[C@@H]2CN(c3ccc(CNC(=O)C4(c5ccc(OCc6ccc(C(F)F)nc6)nn5)CC4)cc3)C[C@@H]2C1 [Example 1.24]

IC50 (Human ATX): 3.2 nM
IC50 (ATX in human whole blood): 12.4 nM
Compound: CC(=O)N1C[C@@H]2CN(c3ccc(CNC(=O)C4(c5ccc(OCc6ccc(C(F)(F)F)nc6)nn5)CC4)cc3)C[C@@H]2C1 [Example 1.25]

IC50 (Human ATX): 4.1 nM
IC50 (ATX in human whole blood): 3.9 nM
Compound: CC(=O)N1CC2(C1)CN(c1ccc(CNC(=O)C3(c4ccc(OCc5ccc(C(F)F)nc5)nn4)CC3)cc1F)C2 [Example 1.26]

IC50 (ATX in human whole blood): 12.1 nM
Compound: CC(=O)N1CCN(c2ccc(CNC(=O)C3(c4ccc(OCc5ccc(C(F)F)nc5)nn4)CC3)cn2)CC1 [Example 1.27]

IC50 (Human ATX): 3.2 nM
IC50 (ATX in human whole blood): 6.4 nM
Compound: CC(=O)N1CCC2(CC1)CN(c1ccc(CNC(=O)C3(c4ccc(OCc5ccc(C(F)(F)F)nc5)nn4)CC3)nc1)C2 [Example 1.28]

IC50 (Human ATX): 5.2 nM
IC50 (ATX in human whole blood): 5.1 nM
Compound: CC(=O)N1CCC2(CC1)CN(c1ccc(CNC(=O)C3(c4ccc(OCc5ccc(C(F)F)nc5)nn4)CC3)nc1)C2 [Example 1.29]

IC50 (Human ATX): 3.4 nM
IC50 (ATX in human whole blood): 15.5 nM
Compound: CC(=O)N1CCC2(CC1)CN(c1ccc(CNC(=O)C3(c4ccc(OCc5ccc(C(F)(F)F)nc5)nn4)CC3)cn1)C2 [Example 1.30]

IC50 (Human ATX): 3.4 nM
IC50 (ATX in human whole blood): 10.7 nM
Compound: CC(=O)N1CCC(c2ccc(CNC(=O)C3(c4ccc(OCc5ccc(C(F)(F)F)nc5)nn4)CC3)cc2)CC1 [Example 1.31]
